Results taken from ChEMBL document CHEMBL1275453, “Resistance trends of the Bacteroides fragilis group over a 10-year period, 1997 to 2006, in Madrid, Spain” (2008).
In brackets after ≈: the same amount, converted by molar mass.

What was measured:
Assay type in all cases: functional
Bacteroides fragilis [1] = assay: Antibacterial activity against Bacteroides fragilis isolate by agar dilution method
Bacteroides stercoris [2] = assay: Antibacterial activity against Bacteroides stercoris assessed as percent resistant isolates by agar dilution method; settings: pooled result: one value given for 4 cell lines, strains, targets or settings
Bacteroides ovatus [3] = assay: Antibacterial activity against Bacteroides ovatus assessed as percent resistant isolates by agar dilution method
[4] = tested on: Parabacteroides distasonis; assay: Antibacterial activity against Bacteroides distasonis assessed as percent resistant isolates by agar dilution method
Bacteroides caccae [5] = assay: Antibacterial activity against Bacteroides caccae assessed as percent resistant isolates by agar dilution method
Phocaeicola vulgatus [6] = assay: Antibacterial activity against Bacteroides vulgatus assessed as percent resistant isolates by agar dilution method
Bacteroides uniformis [7] = assay: Antibacterial activity against Bacteroides uniformis assessed as percent resistant isolates by agar dilution method
[8] = tested on: Bacteroides thetaiotaomicron; assay: Antibacterial activity against Bacteroides thetaiotaomicron assessed as percent resistant isolates by agar dilution method
Bacteroides fragilis [9] = assay: Antibacterial activity against Bacteroides fragilis assessed as percent resistant isolates by agar dilution method
Bacteroides stercoris [10] = assay: Antibacterial activity against Bacteroides stercoris isolate by agar dilution method
Parabacteroides merdae = assay: Antibacterial activity against Bacteroides merdae isolate by agar dilution method
Bacteroides eggerthii = assay: Antibacterial activity against Bacteroides eggerthii isolate by agar dilution method
Bacteroides sp. = assay: Antibacterial activity against Bacteroides spp. isolate by agar dilution method
Bacteroides ovatus [11] = assay: Antibacterial activity against Bacteroides ovatus isolate by agar dilution method
[12] = tested on: Parabacteroides distasonis; assay: Antibacterial activity against Bacteroides distasonis isolate by agar dilution method
Phocaeicola vulgatus [13] = assay: Antibacterial activity against Bacteroides vulgatus isolate by agar dilution method
Bacteroides caccae [14] = assay: Antibacterial activity against Bacteroides caccae isolate by agar dilution method
Bacteroides uniformis [15] = assay: Antibacterial activity against Bacteroides uniformis isolate by agar dilution method
[16] = tested on: Bacteroides thetaiotaomicron; assay: Antibacterial activity against Bacteroides thetaiotaomicron isolate by agar dilution method

SMILES | MIC50 (Bacteroides fragilis [1]) [µg/mL] | MIC90 (Bacteroides fragilis [1]) [µg/mL] | Activity (Bacteroides stercoris [2]) [%] | Activity (Bacteroides ovatus [3]) [%] | Activity [4] [%] | Activity (Bacteroides caccae [5]) [%] | Activity (Phocaeicola vulgatus [6]) [%] | Activity (Bacteroides uniformis [7]) [%] | Activity [8] [%] | Activity (Bacteroides fragilis [9]) [%] | MIC50 (Bacteroides stercoris [10]) [µg/mL] | MIC90 (Bacteroides stercoris [10]) [µg/mL] | MIC50 (Parabacteroides merdae) [µg/mL] | MIC90 (Parabacteroides merdae) [µg/mL] | MIC50 (Bacteroides eggerthii) [µg/mL] | MIC90 (Bacteroides eggerthii) [µg/mL] | MIC50 (Bacteroides sp.) [µg/mL] | MIC90 (Bacteroides sp.) [µg/mL] | MIC50 (Bacteroides ovatus [11]) [µg/mL] | MIC90 (Bacteroides ovatus [11]) [µg/mL] | other results
C[C@@H](O)[C@H]1C(=O)N2C(C(=O)O)=C(SCCNC=N)C[C@H]12 [IMIPENEM ANHYDROUS] | 0.25 (≈ 0.835 µM) | 1 (≈ 3.34 µM) | 0 | 0 | 0 | 0 | 0 | 0 | 0.5 | 0.6 | 0.25 (≈ 0.835 µM) | 2 (≈ 6.68 µM) | 0.25 (≈ 0.835 µM) | 2 (≈ 6.68 µM) | 0.25 (≈ 0.835 µM) | 2 (≈ 6.68 µM) | 0.25 (≈ 0.835 µM) | 2 (≈ 6.68 µM) | 0.25 (≈ 0.835 µM) | 2 (≈ 6.68 µM) | MIC50 [12]: 1 µg/mL (≈ 3.34 µM); MIC90 [12]: 1 µg/mL (≈ 3.34 µM); MIC50 (Phocaeicola vulgatus [13]): 0.5 µg/mL (≈ 1.67 µM); MIC90 (Phocaeicola vulgatus [13]): 2 µg/mL (≈ 6.68 µM); MIC50 (Bacteroides caccae [14]): 0.5 µg/mL (≈ 1.67 µM); MIC90 (Bacteroides caccae [14]): 2 µg/mL (≈ 6.68 µM); MIC50 (Bacteroides uniformis [15]): 0.25 µg/mL (≈ 0.835 µM); MIC90 (Bacteroides uniformis [15]): 2 µg/mL (≈ 6.68 µM); MIC50 [16]: 0.5 µg/mL (≈ 1.67 µM); MIC90 [16]: 2 µg/mL (≈ 6.68 µM)
O=C(N[C@H](CO)[C@H](O)c1ccc([N+](=O)[O-])cc1)C(Cl)Cl [CHLORAMPHENICOL] | 4 (≈ 12.4 µM) | 8 (≈ 24.8 µM) | 0 | 0 | 0 | 0 | 0 | 0 | 0 | 0 | 4 (≈ 12.4 µM) | 8 (≈ 24.8 µM) | 4 (≈ 12.4 µM) | 8 (≈ 24.8 µM) | 4 (≈ 12.4 µM) | 8 (≈ 24.8 µM) | 4 (≈ 12.4 µM) | 8 (≈ 24.8 µM) | 4 (≈ 12.4 µM) | 8 (≈ 24.8 µM) | MIC50 [12]: 8 µg/mL (≈ 24.8 µM); MIC90 [12]: 8 µg/mL (≈ 24.8 µM); MIC50 (Phocaeicola vulgatus [13]): 4 µg/mL (≈ 12.4 µM); MIC90 (Phocaeicola vulgatus [13]): 8 µg/mL (≈ 24.8 µM); MIC50 (Bacteroides caccae [14]): 4 µg/mL (≈ 12.4 µM); MIC90 (Bacteroides caccae [14]): 8 µg/mL (≈ 24.8 µM); MIC50 (Bacteroides uniformis [15]): 4 µg/mL (≈ 12.4 µM); MIC90 (Bacteroides uniformis [15]): 8 µg/mL (≈ 24.8 µM); MIC50 [16]: 4 µg/mL (≈ 12.4 µM); MIC90 [16]: 8 µg/mL (≈ 24.8 µM)
CCC[C@@H]1C[C@@H](C(=O)N[C@@H]([C@H]2O[C@H](SC)[C@H](O)[C@@H](O)[C@H]2O)[C@H](C)Cl)N(C)C1 [CLINDAMYCIN] | 2 (≈ 4.71 µM) | > 256 | 45.7 | 48.8 | 41.9 | 46.7 | 44.7 | 40.6 | 47.3 | 33.3 | 4 (≈ 9.41 µM) | > 256 | 4 (≈ 9.41 µM) | > 256 | 4 (≈ 9.41 µM) | > 256 | 4 (≈ 9.41 µM) | > 256 | 4 (≈ 9.41 µM) | > 256 | MIC50 [12]: 4 µg/mL (≈ 9.41 µM); MIC90 [12]: > 256 µg/mL; MIC50 (Phocaeicola vulgatus [13]): 4 µg/mL (≈ 9.41 µM); MIC90 (Phocaeicola vulgatus [13]): > 256 µg/mL; MIC50 (Bacteroides caccae [14]): 4 µg/mL (≈ 9.41 µM); MIC90 (Bacteroides caccae [14]): > 256 µg/mL; MIC50 (Bacteroides uniformis [15]): 2 µg/mL (≈ 4.71 µM); MIC90 (Bacteroides uniformis [15]): > 256 µg/mL; MIC50 [16]: 4 µg/mL (≈ 9.41 µM); MIC90 [16]: > 256 µg/mL
CN(C)c1cc(NC(=O)CNC(C)(C)C)c(O)c2c1C[C@H]1C[C@H]3[C@H](N(C)C)C(O)=C(C(N)=O)C(=O)[C@@]3(O)C(O)=C1C2=O [TIGECYCLINE] | 1 (≈ 1.71 µM) | 8 (≈ 13.7 µM) | 10.5 | 7.2 | 8.3 | 16.1 | 6.1 | 9.1 | 7.5 | 6.5 | 1 (≈ 1.71 µM) | 8 (≈ 13.7 µM) | 1 (≈ 1.71 µM) | 8 (≈ 13.7 µM) | 1 (≈ 1.71 µM) | 8 (≈ 13.7 µM) | 1 (≈ 1.71 µM) | 8 (≈ 13.7 µM) | 2 (≈ 3.41 µM) | 8 (≈ 13.7 µM) | MIC50 [12]: 2 µg/mL (≈ 3.41 µM); MIC90 [12]: 8 µg/mL (≈ 13.7 µM); MIC50 (Phocaeicola vulgatus [13]): 0.5 µg/mL (≈ 0.854 µM); MIC90 (Phocaeicola vulgatus [13]): 8 µg/mL (≈ 13.7 µM); MIC50 (Bacteroides caccae [14]): 1 µg/mL (≈ 1.71 µM); MIC90 (Bacteroides caccae [14]): 16 µg/mL (≈ 27.3 µM); MIC50 (Bacteroides uniformis [15]): 1 µg/mL (≈ 1.71 µM); MIC90 (Bacteroides uniformis [15]): 8 µg/mL (≈ 13.7 µM); MIC50 [16]: 1 µg/mL (≈ 1.71 µM); MIC90 [16]: 8 µg/mL (≈ 13.7 µM)
Cc1ncc([N+](=O)[O-])n1CCO [METRONIDAZOLE] | 1 (≈ 5.84 µM) | 2 (≈ 11.7 µM) | 0 | 0 | 0 | 0 | 0 | 0 | 0 | 0 | 0.5 (≈ 2.92 µM) | 2 (≈ 11.7 µM) | 0.5 (≈ 2.92 µM) | 2 (≈ 11.7 µM) | 0.5 (≈ 2.92 µM) | 2 (≈ 11.7 µM) | 0.5 (≈ 2.92 µM) | 2 (≈ 11.7 µM) | 1 (≈ 5.84 µM) | 2 (≈ 11.7 µM) | MIC50 [12]: 1 µg/mL (≈ 5.84 µM); MIC90 [12]: 2 µg/mL (≈ 11.7 µM); MIC50 (Phocaeicola vulgatus [13]): 1 µg/mL (≈ 5.84 µM); MIC90 (Phocaeicola vulgatus [13]): 2 µg/mL (≈ 11.7 µM); MIC50 (Bacteroides caccae [14]): 1 µg/mL (≈ 5.84 µM); MIC90 (Bacteroides caccae [14]): 2 µg/mL (≈ 11.7 µM); MIC50 (Bacteroides uniformis [15]): 1 µg/mL (≈ 5.84 µM); MIC90 (Bacteroides uniformis [15]): 2 µg/mL (≈ 11.7 µM); MIC50 [16]: 1 µg/mL (≈ 5.84 µM); MIC90 [16]: 2 µg/mL (≈ 11.7 µM)
